According to patent US9809574B2, “Isoindoline or isoquinoline compounds, a process for their preparation and pharmaceutical compositions containing them” (LES LABORATOIRES SERVIER, priority 2013, dated 2017):

Assays:
Bcl-2 protein = Bcl-2 protein (histag-Bcl-2, UniProtKB P10415) (Homo sapiens (Human), UniProt P10415); test: Inhibition of Bcl-2 by the fluorescence polarisation technique; format: binding; settings: fluorescence polarisation test; incubation for 2 hours; read-out: IC50 (nM) Bcl-2 FP
Chain of Bcl-2 protein (P10415 whole entry): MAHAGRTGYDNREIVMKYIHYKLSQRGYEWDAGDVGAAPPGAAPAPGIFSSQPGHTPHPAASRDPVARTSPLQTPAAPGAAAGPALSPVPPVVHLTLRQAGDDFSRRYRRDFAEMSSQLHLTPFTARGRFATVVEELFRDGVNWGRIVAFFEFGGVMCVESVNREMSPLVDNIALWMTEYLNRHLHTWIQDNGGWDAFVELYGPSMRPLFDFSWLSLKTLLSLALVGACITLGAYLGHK
Source text: For partial inhibitors, the percentage fluorescence polarisation inhibition for a given concentration of the test compound is indicated.

[1] = test system: RS4; 11 leukaemia cell line; test: In vitro cytotoxicity, Microculture Tetrazolium Assay (MTT); format: cell-based; settings: Homo sapiens, 11 cells exposed for 48 hours
Experimental: The cytotoxicity studies were carried out on the RS4; 11 leukaemia cell line and on H146 small Cell Lung Carcinoma cell line. The cells are distributed onto microplates and exposed to the test compounds for 48 hours. The cell viability is then quantified by a colorimetric assay, the Microculture Tetrazolium Assay (Cancer Res., 1987, 47, 939-942).

Compound | IC50 (Bcl-2 protein) | IC50 [1]
CN(C(=O)c1cc(-c2cc3c(cc2C(=O)N2Cc4ccccc4C[C@H]2CN2CCOCC2)CN(C(=O)COc2ccccc2)C3)n2c1CCCC2)c1ccc(O)cc1 [Example 156, N-(4-Hydroxyphenyl)-N-methyl-3-{6-[(3S)-3-(morpholin-4-ylmethyl)-1,2,3,4-tetrahydroisoquinoline-2-carbonyl]-2-(2-phenoxyacetyl)-2,3-dihydro-1H-isoindol-5-yl}-5,6,7,8-tetrahydroindolizine-1-carboxamide] | 6.8 nM | 121 nM
Cc1c(C(=O)N(C)c2ccc(O)cc2)cc(-c2cc3c(cc2C(=O)N2Cc4ccccc4C[C@H]2C)CN(C(=O)OC2CCS(=O)(=O)C2)C3)n1C (stereo partly drawn) [Example 157, 1,1-Dioxo-1λ^6-thiolan-3-yl 5-{4-[(4-hydroxyphenyl)(methyl)carbamoyl]-1,5-dimethyl-1H-pyrrol-2-yl}-6-[(3R)-3-methyl-1,2,3,4-tetrahydroisoquinoline-2-carbonyl]-2,3-dihydro-1H-isoindole-2-carboxylate] | 21 nM | > 600 nM
Cc1c(C(=O)N(C)c2ccc(O)cc2)cc(-c2cc3c(cc2C(=O)N2Cc4ccccc4C[C@H]2CN2CCOCC2)CN(C(=O)COc2ccccc2)C3)n1C [Example 159, N-(4-Hydroxyphenyl)-N,1,2-trimethyl-5-{6-[(3S)-3-(morpholin-4-ylmethyl)-1,2,3,4-tetrahydroisoquinoline-2-carbonyl]-2-(2-phenoxyacetyl)-2,3-dihydro-1H-isoindol-5-yl}-1H-pyrrole-3-carboxamide] | 8.5 nM | 163 nM
Cc1c(C(=O)N(C)c2ccc(O)cc2)cc(-c2cc3c(cc2C(=O)N2Cc4ccccc4C[C@H]2C)CN(C(=O)COCc2ccccc2)C3)n1C [Example 160, 5-{2-[2-(Benzyloxy)acetyl]-6-[(3R)-3-methyl-1,2,3,4-tetrahydroisoquinoline-2-carbonyl]-2,3-dihydro-1H-isoindol-5-yl}-N-(4-hydroxyphenyl)-N,1,2-trimethyl-1H-pyrrole-3-carboxamide] | 6.9 nM | 86 nM
CCCCN(CCCC)C(=O)c1cc(-c2cc3c(cc2C(=O)N2CCc4ccccc4C2)CN(C(=O)Oc2ccccc2)CC3)n(C)c1C [Example 161, Phenyl 6-[4-(dibutylcarbamoyl)-1,5-dimethyl-1H-pyrrol-2-yl]-7-(1,2,3,4-tetrahydroisoquinoline-2-carbonyl)-1,2,3,4-tetrahydroisoquinoline-2-carboxylate] | 68 nM | > 150 nM
CCCCN(CCCC)C(=O)c1cc(-c2cc3c(cc2C(=O)N2CCc4ccccc4C2)CN(C(=O)Cc2ccccc2)CC3)n(C)c1C [Example 162, N,N-Dibutyl-1,2-dimethyl-5-[2-(2-phenylacetyl)-7-(1,2,3,4-tetrahydroisoquinoline-2-carbonyl)-1,2,3,4-tetrahydroisoquinolin-6-yl]-1H-pyrrole-3-carboxamide] | 33 nM | > 150 nM
CCCCN(CCCC)C(=O)c1cc(-c2cc3c(cc2C(=O)N2Cc4ccccc4C[C@H]2C)CN(C(=O)Oc2ccccc2)CC3)n(C)c1C [Example 163, Phenyl 6-[4-(dibutylcarbamoyl)-1,5-dimethyl-1H-pyrrol-2-yl]-7-[(3R)-3-methyl-1,2,3,4-tetrahydroisoquinoline-2-carbonyl]-1,2,3,4-tetrahydroisoquinoline-2-carboxylate] | 27 nM | > 150 nM
CCCCN(CCCC)C(=O)c1cc(-c2cc3c(cc2C(=O)N2Cc4ccccc4C[C@H]2C)CN(C(=O)Cc2ccccc2)CC3)n(C)c1C [Example 164, N,N-Dibutyl-1,2-dimethyl-5-{7-[(3R)-3-methyl-1,2,3,4-tetrahydroisoquinoline-2-carbonyl]-2-(2-phenylacetyl)-1,2,3,4-tetrahydroisoquinolin-6-yl}-1H-pyrrole-3-carboxamide] | 14 nM | > 150 nM
CCCCN(CCCC)C(=O)c1cc(-c2cc3c(cc2C(=O)N2Cc4ccccc4C[C@H]2CN2CCOCC2)CN(C(=O)Cc2ccccc2)CC3)n(C)c1C [Example 165, N,N-Dibutyl-1,2-dimethyl-5-{7-[(3S)-3-(morpholin-4-ylmethyl)-1,2,3,4-tetrahydroisoquinoline-2-carbonyl]-2-(2-phenylacetyl)-1,2,3,4-tetrahydroisoquinolin-6-yl}-1H-pyrrole-3-carboxamide] | 18 nM | > 150 nM
CN(C(=O)c1cc(-c2cc3c(cc2C(=O)N2Cc4ccccc4C[C@H]2CN2CCOCC2)CN(C(=O)COc2ccccc2)C3)n2ccccc12)c1ccc(O)cc1 [Example 166, N-(4-Hydroxyphenyl)-N-methyl-3-{6-[(3S)-3-(morpholin-4-ylmethyl)-1,2,3,4-tetrahydroisoquinoline-2-carbonyl]-2-(2-phenoxyacetyl)-2,3-dihydro-1H-isoindol-5-yl}indolizine-1-carboxamide] | 6.4 nM | 58 nM
C[C@@H]1Cc2ccccc2CN1C(=O)c1cc2c(cc1-c1cc(C(=O)N(C)c3ccc(O)cc3)c3ccccn13)CN(C(=O)COc1ccccc1)C2 [Example 167, N-(4-Hydroxyphenyl)-N-methyl-3-{6-[(3R)-3-methyl-1,2,3,4-tetrahydroisoquinoline-2-carbonyl]-2-(2-phenoxyacetyl)-2,3-dihydro-1H-isoindol-5-yl}indolizine-1-carboxamide] | 6.5 nM | 20 nM
CNC(=O)N1Cc2cc(C(=O)N3Cc4ccccc4C[C@H]3C)c(-c3cc(C(=O)N(C)c4ccc(O)cc4)c(C)n3C)cc2C1 [Example 170, 5-{4-[(4-Hydroxyphenyl)(methyl)carbamoyl]-1,5-dimethyl-1H-pyrrol-2-yl}-N-methyl-6-[(3R)-3-methyl-1,2,3,4-tetrahydroisoquinoline-2-carbonyl]-2,3-dihydro-1H-isoindole-2-carboxamide] | 12 nM | 491 nM

These reach a lower IC50 (Bcl-2 protein). Values come first.

IC50 (Bcl-2 protein) | Compound | IC50 [1]
3.9 nM | C[C@@H]1Cc2ccccc2CN1C(=O)c1cc2c(cc1-c1cc(C(=O)N(C)c3ccc(O)cc3)c3n1CCCC3)CCN(C(=O)Cc1ccc(OCCN(C)C)cc1)C2 [Example 154, 3-[2-(2-{4-[2-(Dimethylamino)ethoxy]phenyl}acetyl)-7-[(3R)-3-methyl-1,2,3,4-tetrahydroisoquinoline-2-carbonyl]-1,2,3,4-tetrahydroisoquinolin-6-yl]-N-(4-hydroxyphenyl)-N-methyl-5,6,7,8-tetrahydroindolizine-1-carboxamide] | 5.9 nM
3.2 nM | C[C@@H]1Cc2ccccc2CN1C(=O)c1cc2c(cc1-c1cc(C(=O)N(C)c3ccc(O)cc3)c3n1CCCC3)CCN(C(=O)Oc1ccc(CCC(=O)N(C)C)cc1)C2 [Example 155, 4-[2-(Dimethylcarbamoyl)ethyl]phenyl 6-{1-[(4-hydroxyphenyl)(methyl)carbamoyl]-5,6,7,8-tetrahydroindolizin-3-yl}-7-[(3R)-3-methyl-1,2,3,4-tetrahydroisoquinoline-2-carbonyl]-1,2,3,4-tetrahydroisoquinoline-2-carboxylate] | 2.9 nM
4.6 nM | C[C@@H]1Cc2ccccc2CN1C(=O)c1cc2c(cc1-c1cc(C(=O)N(c3ccc(O)cc3)c3cnc4c(ccn4C)c3)c3n1CCCC3)CN(C(=O)COc1ccccc1)C2 [Example 158, N-(4-Hydroxyphenyl)-3-{6-[(3R)-3-methyl-1,2,3,4-tetrahydroisoquinoline-2-carbonyl]-2-(2-phenoxyacetyl)-2,3-dihydro-1H-isoindol-5-yl}-N-{1-methyl-1H-pyrrolo[2,3-b]pyridin-5-yl}-5,6,7,8-tetrahydroindolizine-1-carboxamide] | 3.5 nM
5.7 nM | Cc1ccc(OC(=O)N2Cc3cc(C(=O)N4Cc5ccccc5C[C@H]4C)c(-c4cc(C(=O)N(C)c5ccc(O)cc5)c5n4CCCC5)cc3C2)cc1 [Example 168, 4-Methylphenyl 5-{1-[(4-hydroxyphenyl)(methyl)carbamoyl]-5,6,7,8-tetrahydroindolizin-3-yl}-6-[(3R)-3-methyl-1,2,3,4-tetrahydroisoquinoline-2-carbonyl]-2,3-dihydro-1H-isoindole-2-carboxylate] | 6.6 nM
3.3 nM | C[C@@H]1Cc2ccccc2CN1C(=O)c1cc2c(cc1-c1cc(C(=O)N(C)c3ccc(O)cc3)c3n1CCCC3)CCN(C(=O)Cc1cccc(N3CCN(C)CC3)c1)C2 [Example 169, N-(4-Hydroxyphenyl)-N-methyl-3-{7-[(3R)-3-methyl-1,2,3,4-tetrahydroisoquinoline-2-carbonyl]-2-{2-[3-(4-methylpiperazin-1-yl)phenyl]acetyl}-1,2,3,4-tetrahydroisoquinolin-6-yl}-5,6,7,8-tetrahydroindolizine-1-carboxamide] | 3 nM
5.1 nM | C[C@@H]1Cc2ccccc2CN1C(=O)c1cc2c(cc1-c1cc(C(=O)N(C)c3ccc(O)cc3)c3n1CCCC3)CN(C(=O)CSc1ccccc1)C2 [Example 171, N-(4-Hydroxyphenyl)-N-methyl-3-{6-[(3R)-3-methyl-1,2,3,4-tetrahydroisoquinoline-2-carbonyl]-2-[2-(phenylsulfanyl)acetyl]-2,3-dihydro-1H-isoindol-5-yl}-5,6,7,8-tetrahydroindolizine-1-carboxamide] | 63 nM
3.4 nM | Cc1c(C(=O)N(C)c2ccc(O)cc2)cc(-c2cc3c(cc2C(=O)N2Cc4ccccc4C[C@H]2C)CN(C(=O)Cc2ccc4c(c2)OCO4)C3)n1C [Example 172, 5-{2-[2-(2H-1,3-Benzodioxol-5-yl)acetyl]-6-[(3R)-3-methyl-1,2,3,4-tetrahydroisoquinoline-2-carbonyl]-2,3-dihydro-1H-isoindol-5-yl}-N-(4-hydroxyphenyl)-N,1,2-trimethyl-1H-pyrrole-3-carboxamide] | 28 nM
